Assay results taken from ChEMBL document CHEMBL5634108, “The latest perspectives of small molecules FMS kinase inhibitors” (Eur J Med Chem, 2023).

Assays:
[1] = target: T1, Tyrosine-protein kinase receptor UFO (Homo sapiens, UniProt P30530); test: Inhibition of AXL (unknown origin) by FRET assay
T1 sequence (P30530 whole entry): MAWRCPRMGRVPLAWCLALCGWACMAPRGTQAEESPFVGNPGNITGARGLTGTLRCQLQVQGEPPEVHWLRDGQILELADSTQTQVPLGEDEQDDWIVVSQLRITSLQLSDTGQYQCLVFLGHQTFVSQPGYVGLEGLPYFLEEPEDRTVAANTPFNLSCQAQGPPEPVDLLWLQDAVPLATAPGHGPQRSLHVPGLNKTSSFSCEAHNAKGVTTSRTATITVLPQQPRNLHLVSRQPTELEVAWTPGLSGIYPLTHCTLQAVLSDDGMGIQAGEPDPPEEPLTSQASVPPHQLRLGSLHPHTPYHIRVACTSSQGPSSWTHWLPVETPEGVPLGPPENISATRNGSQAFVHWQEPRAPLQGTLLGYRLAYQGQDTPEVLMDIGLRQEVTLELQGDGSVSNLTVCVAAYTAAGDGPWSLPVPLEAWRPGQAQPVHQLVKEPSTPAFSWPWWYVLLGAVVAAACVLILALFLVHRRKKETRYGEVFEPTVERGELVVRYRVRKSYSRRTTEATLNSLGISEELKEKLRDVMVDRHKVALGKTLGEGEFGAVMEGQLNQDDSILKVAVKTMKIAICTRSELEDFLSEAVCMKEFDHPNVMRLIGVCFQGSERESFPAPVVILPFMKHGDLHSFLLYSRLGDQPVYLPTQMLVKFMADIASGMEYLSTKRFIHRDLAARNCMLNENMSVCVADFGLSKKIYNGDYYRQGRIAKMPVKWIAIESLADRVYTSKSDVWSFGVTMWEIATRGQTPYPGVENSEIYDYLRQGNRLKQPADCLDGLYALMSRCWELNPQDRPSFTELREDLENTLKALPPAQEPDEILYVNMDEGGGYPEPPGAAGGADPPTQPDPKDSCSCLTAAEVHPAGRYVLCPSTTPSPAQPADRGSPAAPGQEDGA

[2] = target: Receptor-type tyrosine-protein kinase FLT3 (Homo sapiens, UniProt P36888, ITD); test: Inhibition of FLT3 ITD mutant (unknown origin) preincubated for 60 mins followed by ATP addition and measured after 1 hr by ADP-Glo assay
[3] = target: T2, Vascular endothelial growth factor receptor 2 (Homo sapiens, UniProt P35968); test: Inhibition of KDR (unknown origin)
T2 sequence (P35968 whole entry): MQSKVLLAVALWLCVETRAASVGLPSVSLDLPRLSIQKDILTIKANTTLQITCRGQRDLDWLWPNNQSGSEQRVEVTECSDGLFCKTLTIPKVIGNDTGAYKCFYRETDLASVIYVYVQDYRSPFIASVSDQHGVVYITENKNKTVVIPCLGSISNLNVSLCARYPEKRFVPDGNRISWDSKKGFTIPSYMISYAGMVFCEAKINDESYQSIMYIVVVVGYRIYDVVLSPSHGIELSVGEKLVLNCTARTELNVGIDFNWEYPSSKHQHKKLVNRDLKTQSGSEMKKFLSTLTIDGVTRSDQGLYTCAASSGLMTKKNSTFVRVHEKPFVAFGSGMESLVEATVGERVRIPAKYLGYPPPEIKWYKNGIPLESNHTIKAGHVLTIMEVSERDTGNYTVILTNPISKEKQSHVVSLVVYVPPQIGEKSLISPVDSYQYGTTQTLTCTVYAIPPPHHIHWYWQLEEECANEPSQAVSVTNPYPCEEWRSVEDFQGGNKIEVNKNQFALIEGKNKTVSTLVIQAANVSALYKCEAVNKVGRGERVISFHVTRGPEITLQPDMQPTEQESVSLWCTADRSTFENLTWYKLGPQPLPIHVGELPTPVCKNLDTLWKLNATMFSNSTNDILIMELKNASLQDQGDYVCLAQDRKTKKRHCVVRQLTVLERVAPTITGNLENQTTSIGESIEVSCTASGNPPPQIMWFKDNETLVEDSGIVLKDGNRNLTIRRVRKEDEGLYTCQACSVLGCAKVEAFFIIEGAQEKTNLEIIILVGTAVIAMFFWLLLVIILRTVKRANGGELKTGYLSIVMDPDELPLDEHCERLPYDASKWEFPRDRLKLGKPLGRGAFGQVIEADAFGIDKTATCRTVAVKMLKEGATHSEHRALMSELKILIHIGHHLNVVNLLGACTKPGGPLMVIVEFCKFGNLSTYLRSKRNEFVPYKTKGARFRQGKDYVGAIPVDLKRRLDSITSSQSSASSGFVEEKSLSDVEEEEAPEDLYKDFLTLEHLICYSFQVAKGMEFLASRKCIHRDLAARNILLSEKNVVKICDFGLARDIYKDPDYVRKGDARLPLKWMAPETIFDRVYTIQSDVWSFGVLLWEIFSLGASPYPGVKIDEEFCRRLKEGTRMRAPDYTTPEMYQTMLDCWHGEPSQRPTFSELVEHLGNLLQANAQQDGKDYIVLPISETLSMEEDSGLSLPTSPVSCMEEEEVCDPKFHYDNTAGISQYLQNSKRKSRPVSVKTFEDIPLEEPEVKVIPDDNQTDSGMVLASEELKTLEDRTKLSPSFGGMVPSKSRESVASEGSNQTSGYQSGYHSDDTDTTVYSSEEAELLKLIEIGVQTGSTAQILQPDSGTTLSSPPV

Aurora kinase C [4] = target: T3, Aurora kinase C (Homo sapiens, UniProt Q9UQB9); test: Inhibition of human AURKC by discoverX kinome scan assay
T3 sequence (Q9UQB9 whole entry): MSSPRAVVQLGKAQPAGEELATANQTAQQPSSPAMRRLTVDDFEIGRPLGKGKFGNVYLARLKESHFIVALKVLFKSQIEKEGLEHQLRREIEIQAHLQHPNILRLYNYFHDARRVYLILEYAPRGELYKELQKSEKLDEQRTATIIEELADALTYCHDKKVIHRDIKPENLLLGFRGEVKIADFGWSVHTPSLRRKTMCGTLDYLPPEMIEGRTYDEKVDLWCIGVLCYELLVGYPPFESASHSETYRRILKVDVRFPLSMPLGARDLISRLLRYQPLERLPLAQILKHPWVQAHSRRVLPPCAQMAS

[5] = target: T4, Mast/stem cell growth factor receptor Kit (Homo sapiens, UniProt P10721); test: Inhibition of KIT (unknown origin) using ATP as substrate incubated for 1 hrs by ELISA
T4 sequence (P10721 whole entry): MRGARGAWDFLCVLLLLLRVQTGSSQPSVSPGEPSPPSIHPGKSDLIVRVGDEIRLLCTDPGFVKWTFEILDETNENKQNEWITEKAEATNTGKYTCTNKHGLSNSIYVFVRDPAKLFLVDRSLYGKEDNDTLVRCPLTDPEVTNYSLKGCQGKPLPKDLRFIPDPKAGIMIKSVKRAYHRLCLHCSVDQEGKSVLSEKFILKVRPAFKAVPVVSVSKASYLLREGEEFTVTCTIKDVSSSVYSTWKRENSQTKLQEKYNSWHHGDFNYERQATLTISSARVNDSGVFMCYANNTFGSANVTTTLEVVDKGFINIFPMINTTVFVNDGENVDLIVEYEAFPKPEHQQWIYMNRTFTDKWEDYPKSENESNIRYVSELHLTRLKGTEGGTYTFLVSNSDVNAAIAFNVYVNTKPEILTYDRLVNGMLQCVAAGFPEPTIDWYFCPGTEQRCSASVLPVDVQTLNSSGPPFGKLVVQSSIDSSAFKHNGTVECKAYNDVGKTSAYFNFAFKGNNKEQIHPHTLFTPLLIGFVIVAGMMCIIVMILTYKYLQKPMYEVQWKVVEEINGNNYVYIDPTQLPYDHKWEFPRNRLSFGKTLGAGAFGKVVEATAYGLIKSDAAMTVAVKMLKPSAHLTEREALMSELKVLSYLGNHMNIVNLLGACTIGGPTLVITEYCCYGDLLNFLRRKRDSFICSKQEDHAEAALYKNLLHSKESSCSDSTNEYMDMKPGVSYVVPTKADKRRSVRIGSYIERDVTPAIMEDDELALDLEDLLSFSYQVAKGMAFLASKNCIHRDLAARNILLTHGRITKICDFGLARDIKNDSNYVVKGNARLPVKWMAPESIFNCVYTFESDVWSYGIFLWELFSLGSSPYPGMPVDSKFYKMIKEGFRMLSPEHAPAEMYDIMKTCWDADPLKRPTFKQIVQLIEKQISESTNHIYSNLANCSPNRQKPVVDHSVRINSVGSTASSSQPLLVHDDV

Aurora kinase C [6] = target: T3, Aurora kinase C; test: Inhibition of AURKC (unknown origin)
[7] = target: T5, Macrophage colony-stimulating factor 1 receptor (Homo sapiens, UniProt P07333); test: Inhibition of CSF1R (unknown origin)
T5 sequence (P07333 whole entry): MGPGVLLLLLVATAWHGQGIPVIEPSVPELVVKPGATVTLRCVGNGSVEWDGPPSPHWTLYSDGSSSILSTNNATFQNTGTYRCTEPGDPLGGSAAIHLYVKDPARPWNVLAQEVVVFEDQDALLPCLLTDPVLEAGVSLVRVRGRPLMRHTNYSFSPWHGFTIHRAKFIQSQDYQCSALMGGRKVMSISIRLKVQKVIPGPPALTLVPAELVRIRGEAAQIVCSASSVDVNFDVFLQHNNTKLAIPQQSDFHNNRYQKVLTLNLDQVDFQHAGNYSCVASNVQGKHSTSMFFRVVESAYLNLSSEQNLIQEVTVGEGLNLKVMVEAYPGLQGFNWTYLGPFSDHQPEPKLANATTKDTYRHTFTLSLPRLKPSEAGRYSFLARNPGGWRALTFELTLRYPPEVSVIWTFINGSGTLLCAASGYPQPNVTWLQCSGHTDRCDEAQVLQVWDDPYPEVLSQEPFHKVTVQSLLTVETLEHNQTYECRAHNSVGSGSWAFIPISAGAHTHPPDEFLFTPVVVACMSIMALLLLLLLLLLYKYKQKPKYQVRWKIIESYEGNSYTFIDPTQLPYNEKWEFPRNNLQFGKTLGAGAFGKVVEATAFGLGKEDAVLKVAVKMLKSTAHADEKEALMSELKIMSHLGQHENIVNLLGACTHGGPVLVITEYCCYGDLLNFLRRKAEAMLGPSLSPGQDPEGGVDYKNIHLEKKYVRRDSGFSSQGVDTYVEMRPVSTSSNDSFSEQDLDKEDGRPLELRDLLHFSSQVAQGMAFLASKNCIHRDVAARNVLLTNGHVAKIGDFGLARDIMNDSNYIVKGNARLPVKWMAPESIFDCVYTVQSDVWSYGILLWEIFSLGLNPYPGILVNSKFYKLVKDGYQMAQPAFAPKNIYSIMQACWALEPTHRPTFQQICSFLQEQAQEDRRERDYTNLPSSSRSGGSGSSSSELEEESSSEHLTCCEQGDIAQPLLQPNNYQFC

[8] = target: Receptor-type tyrosine-protein kinase FLT3 (Homo sapiens) (UniProt P36888); test: Inhibition of FLT3 (unknown origin) at 10 uM by biochemical Hotspot kinase assay relative to control
[9] = target: T6, Tyrosine-protein kinase Lck (Homo sapiens, UniProt P06239); test: Inhibition of LCK (unknown origin) at 10 uM using 33P-ATP as substrate by biochemical Hotspot kinase assay relative to control
Target sequence in this assay (P06239 2-509 limits assumed): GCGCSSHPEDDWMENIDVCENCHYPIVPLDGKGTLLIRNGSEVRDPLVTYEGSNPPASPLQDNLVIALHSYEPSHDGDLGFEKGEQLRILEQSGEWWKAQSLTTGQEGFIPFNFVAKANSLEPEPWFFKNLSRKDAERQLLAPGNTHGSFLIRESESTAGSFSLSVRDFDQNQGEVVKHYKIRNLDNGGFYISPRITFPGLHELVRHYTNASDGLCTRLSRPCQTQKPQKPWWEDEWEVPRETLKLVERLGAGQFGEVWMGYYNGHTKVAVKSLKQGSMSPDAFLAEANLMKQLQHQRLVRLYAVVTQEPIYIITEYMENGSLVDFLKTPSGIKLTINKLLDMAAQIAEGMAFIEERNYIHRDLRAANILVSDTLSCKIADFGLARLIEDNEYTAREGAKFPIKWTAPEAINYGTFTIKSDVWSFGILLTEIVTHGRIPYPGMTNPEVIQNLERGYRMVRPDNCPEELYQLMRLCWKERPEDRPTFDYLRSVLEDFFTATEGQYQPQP

[10] = target: T4, Mast/stem cell growth factor receptor Kit; test: Inhibition of c-Kit (unknown origin) in presence of ATP
[11] = target: Receptor-type tyrosine-protein kinase FLT3 (Homo sapiens) (UniProt P36888); test: Inhibition of FLT3 (unknown origin) at 10 uM relative to control
[12] = target: T7, Receptor-type tyrosine-protein kinase FLT3 (Homo sapiens, UniProt P36888); test: Inhibition of FLT3 (unknown origin) by enzymatic assay
T7 sequence (P36888 whole entry): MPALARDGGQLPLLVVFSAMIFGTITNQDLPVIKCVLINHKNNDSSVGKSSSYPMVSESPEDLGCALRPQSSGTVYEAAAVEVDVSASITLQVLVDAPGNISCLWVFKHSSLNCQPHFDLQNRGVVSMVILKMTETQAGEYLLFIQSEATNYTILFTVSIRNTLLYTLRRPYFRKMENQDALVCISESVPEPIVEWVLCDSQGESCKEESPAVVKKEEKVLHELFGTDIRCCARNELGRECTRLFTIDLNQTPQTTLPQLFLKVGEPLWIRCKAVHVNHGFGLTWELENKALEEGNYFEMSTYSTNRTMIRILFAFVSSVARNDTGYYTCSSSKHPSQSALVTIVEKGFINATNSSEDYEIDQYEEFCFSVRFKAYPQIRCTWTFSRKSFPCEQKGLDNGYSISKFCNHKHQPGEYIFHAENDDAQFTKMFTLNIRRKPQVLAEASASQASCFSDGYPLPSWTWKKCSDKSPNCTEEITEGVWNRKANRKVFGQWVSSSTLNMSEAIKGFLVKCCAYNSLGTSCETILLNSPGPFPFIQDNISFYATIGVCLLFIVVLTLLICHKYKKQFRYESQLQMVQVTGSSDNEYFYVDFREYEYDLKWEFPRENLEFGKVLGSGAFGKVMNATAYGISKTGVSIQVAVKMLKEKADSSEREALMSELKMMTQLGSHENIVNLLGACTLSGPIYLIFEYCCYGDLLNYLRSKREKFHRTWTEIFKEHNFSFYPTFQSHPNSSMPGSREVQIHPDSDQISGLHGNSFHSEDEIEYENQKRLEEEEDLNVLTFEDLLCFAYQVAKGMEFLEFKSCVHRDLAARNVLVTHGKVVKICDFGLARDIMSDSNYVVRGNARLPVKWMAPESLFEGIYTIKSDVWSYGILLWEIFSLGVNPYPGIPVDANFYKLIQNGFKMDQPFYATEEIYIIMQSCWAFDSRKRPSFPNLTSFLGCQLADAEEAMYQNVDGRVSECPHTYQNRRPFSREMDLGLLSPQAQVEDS

[13] = target: T6, Tyrosine-protein kinase Lck; test: Inhibition of LCK (unknown origin) using TK as substrate incubated for 30 mins by HTRF assay
[14] = target: T8, NT-3 growth factor receptor (Homo sapiens, UniProt Q16288); test: Inhibition of TRKC (unknown origin) by TR-FRET assay
T8 sequence (Q16288 whole entry): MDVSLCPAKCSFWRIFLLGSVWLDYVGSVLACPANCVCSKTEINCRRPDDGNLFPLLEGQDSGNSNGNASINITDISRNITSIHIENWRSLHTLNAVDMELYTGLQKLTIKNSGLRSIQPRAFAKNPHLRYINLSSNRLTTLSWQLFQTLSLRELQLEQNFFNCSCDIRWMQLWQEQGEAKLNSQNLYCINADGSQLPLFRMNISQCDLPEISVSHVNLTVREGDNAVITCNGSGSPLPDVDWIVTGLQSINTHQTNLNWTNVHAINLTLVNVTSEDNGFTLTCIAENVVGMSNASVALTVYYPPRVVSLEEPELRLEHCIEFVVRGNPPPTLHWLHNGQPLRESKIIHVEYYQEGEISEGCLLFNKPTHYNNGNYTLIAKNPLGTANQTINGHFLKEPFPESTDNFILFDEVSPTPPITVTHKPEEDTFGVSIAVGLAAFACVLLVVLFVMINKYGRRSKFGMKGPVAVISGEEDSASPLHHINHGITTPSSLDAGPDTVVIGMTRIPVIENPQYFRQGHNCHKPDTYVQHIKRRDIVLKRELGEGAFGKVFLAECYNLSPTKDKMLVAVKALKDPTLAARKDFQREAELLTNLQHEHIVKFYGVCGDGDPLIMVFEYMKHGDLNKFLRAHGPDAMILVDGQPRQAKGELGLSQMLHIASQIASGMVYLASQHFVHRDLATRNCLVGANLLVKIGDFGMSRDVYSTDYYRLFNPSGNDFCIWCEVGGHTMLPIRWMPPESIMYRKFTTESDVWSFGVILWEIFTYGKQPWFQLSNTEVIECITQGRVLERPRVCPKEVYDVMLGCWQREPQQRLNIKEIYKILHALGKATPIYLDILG

[15] = target: T2, Vascular endothelial growth factor receptor 2; test: Inhibition of VEGFR-2 (unknown origin) in presence of ATP incubated for 45 mins by ELISA method
[16] = target: T8, NT-3 growth factor receptor; test: Inhibition of TRKC (unknown origin)
[17] = target: Vascular endothelial growth factor receptor 1 (Homo sapiens, UniProt P17948); test: Inhibition of FLT1 (unknown origin)
SF-268 = test: Growth inhibition of human SF-268 cells by sulforhodamine B assay; type: functional
[18] = target: T5, Macrophage colony-stimulating factor 1 receptor; test: Inhibition of FMS (unknown origin) by kinase assay

Work on `CNC(=O)c1cc2c(Oc3ccc(NC(=S)NC(=O)Cc4ccccc4)cc3F)ccnc2cc1OC` [TAS-115] yielded an IC50 [1] of 15 nM.

In the case of `COc1nc(F)ccc1CNc1ccc(Cc2c[nH]c3ncc(C)cc23)c(F)n1`, the IC50 [2] is reported as 390 nM, the IC50 [3] is reported as 1100 nM and the IC50 (Aurora kinase C [4]) is reported as 16 nM. It also gave an IC50 [5] of 860 nM and an IC50 (Aurora kinase C [6]) of 1000 nM.

With `Nc1nccc2c1ccn2-c1cccc(NC(=O)c2ccc(N3CCOCC3)c(C(F)(F)F)c2)c1` the IC50 [7] was 30 nM.

Work on `COc1ccc(Oc2nc(Nc3ccc(N4CCCCC4)nc3)ncc2NC(=O)c2cc(OC)cc(OC)c2)cc1` yielded an inhibition [8] of 14.5%.

For `COc1ccc(Oc2nc(Nc3ccc(N4CCOCC4)cc3)ncc2NC(=O)c2cccc(SC)c2)cc1`, the inhibition [9] was 87.7%.

`CNC(=O)c1nccc2cc(-c3cncc(Nc4ccc(OC5CC5)nc4)c3C)[nH]c12` gave an IC50 [10] of 1.13 nM.

With `COc1ccc(COc2ncc(Oc3ccnc(C(=O)N[11CH3])c3)cc2OC)cc1` the IC50 [7] was 12 nM.

`Cc1nc2[nH]cc(Cc3ccc(NCc4ccc(C(F)(F)F)nc4)nc3)c2c(C)c1O` was tested, and the inhibition [11] was 8.12%, the IC50 [7] was 57800 nM and the IC50 [10] was 1630 nM.

`CC1(C)CC=C(c2nc(C3CC(C)(C)OC(C)(C)C3)ccc2NC(=O)c2nc(C#N)c[nH]2)CC1` [EDICOTINIB] was tested, and the IC50 [12] was 190 nM.

With `FC(F)(F)c1ccc(CNc2ccc(Cc3c[nH]c4ncc(Cl)cc34)cn2)cn1` [PEXIDARTINIB] the IC50 [13] was 860 nM, the IC50 [14] was 20 nM and the IC50 [15] was 350 nM. The IC50 [16] was 890 nM and the IC50 [17] was 880 nM.

`COc1cc(NC(=O)Nc2cnc(Nc3ccc(N4CCOCC4)cc3)nc2Oc2cccc(OC)c2)cc(OC)c1` showed a GI50 (SF-268) of 50.3 µM and an IC50 [18] of 15 nM.
